Measured values as given in US10179777B2, “3-(1H-benzimidazol-2-yl)-1H-pyridin-2-one derivatives” (MERCK PATENT GMBH, priority 2015, dated 2019).

Experiments:
[1] = target: T1, ALK1 (GST-modified kinase domain ACVRL1 (139-503)) (Homo sapiens, UniProt P37023); assay: ALK1 kinase inhibition assay (33P-ATP filter binding, Reaction Biology); type: biochemical; details: casein substrate, 100 μM ATP (Km ATP), 120 min ambient temperature
T1 construct: N-terminally GST-modified kinase domain ACVRL1 (139-503); GST (N)
T1 sequence (P37023 139-503): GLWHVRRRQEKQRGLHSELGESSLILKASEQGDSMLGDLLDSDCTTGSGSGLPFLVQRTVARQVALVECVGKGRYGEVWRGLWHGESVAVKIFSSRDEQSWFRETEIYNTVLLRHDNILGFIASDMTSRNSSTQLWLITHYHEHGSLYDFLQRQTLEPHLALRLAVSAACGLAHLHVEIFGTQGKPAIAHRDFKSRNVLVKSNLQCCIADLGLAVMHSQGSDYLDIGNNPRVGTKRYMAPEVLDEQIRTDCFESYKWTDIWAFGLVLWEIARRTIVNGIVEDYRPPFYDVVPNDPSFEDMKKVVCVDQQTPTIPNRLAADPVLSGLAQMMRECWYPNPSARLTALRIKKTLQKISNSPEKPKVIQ
Protocol: (§1) The protein sequences of the kinases targeted and accompanying information are described in publically available data base http://www.uniprot.org/uniprot/for ALK1 www.uniprot.org/uniprot/P37023, for ALK2 www.uniprot.org/uniprot/Q04771 and for ALK5 www.uniprot.org/uniprot/P36897. IC50 determination of the novel inhibitors described was performed at Reaction Biology Corp., Malvern, Pa., USA, with assay conditions open to public at www.reactionbiology.com/webapps/site/KinaseDetail.aspx?page=Kinases&id=1, and www.reactionbiology.com/webapps/site/Kinase Assay Protocol.aspx. In addition, they were specified previously in Anastassiadis et al. Nat. Biotechnol. 29(11): 1039-1045. doi:10.1038/nbt.2017.
A1) ALK1 Kinase Inhibition Assay
(§2) was performed with N-terminally GST-modified kinase domain ACVRL1 (139-503) and 20 mg/ml Casein as substrate in reaction buffer of 20 mM HEPES pH 7.5, 10 mM MgCl2, 1 mM EGTA, 0.02% Brij, 0.02 mg/ml BSA, 0.1 mM Na3VO4, 2 mM DTT, 1% DMSO. […] Reactions were carried out at ambient temperature for 120 min, followed by spotting of the reactions onto P81 ion exchange filter paper (Whatman Inc., Picataway, N.J., USA). Unbound phosphate was removed by extensive washing of filters in 0.75% phosphoric acid. After subtraction of background derived from control reactions without enzyme activity, kinase activity data was expressed as the percent remaining kinase activity in test samples compared to vehicle (DMSO) reactions. IC50 values and curve fits were obtained using Prism (GraphPad Software).

[2] = target: T2, ALK2 (GST-modified kinase domain ACVR1(145-509)) (Homo sapiens, UniProt Q04771); assay: ALK2 kinase inhibition assay (33P-ATP filter binding, Reaction Biology); type: biochemical; details: casein substrate, 20 μM ATP (Km ATP), 120 min ambient temperature
T2 construct: N-terminally GST-modified kinase domain ACVR1(145-509); GST (N)
T2 sequence (Q04771 145-509): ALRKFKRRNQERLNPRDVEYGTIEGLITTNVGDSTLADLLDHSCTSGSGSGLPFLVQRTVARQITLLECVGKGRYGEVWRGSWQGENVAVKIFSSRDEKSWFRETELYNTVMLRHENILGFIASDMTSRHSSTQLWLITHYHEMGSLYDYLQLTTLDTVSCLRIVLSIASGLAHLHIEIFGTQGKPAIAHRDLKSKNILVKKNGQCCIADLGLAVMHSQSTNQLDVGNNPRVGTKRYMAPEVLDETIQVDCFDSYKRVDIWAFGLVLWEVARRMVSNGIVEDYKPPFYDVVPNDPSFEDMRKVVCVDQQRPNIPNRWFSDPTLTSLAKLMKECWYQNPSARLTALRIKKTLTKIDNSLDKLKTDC
Protocol: as §1
A2) ALK2 Kinase Inhibition Assay
as §2, with “performed similar to procedure A1” for “performed”, “domain ACVR1(145-509)” for “domain ACVRL1 (139-503)”, “and 1” for “and 20”

[3] = system: ALK1-mediated SMAD1/5 phosphorylation in HUVEC cells; assay: Cell-based immunofluorescence assay for ALK1-mediated SMAD1/5 phosphorylation in HUVEC cells; details: Homo sapiens, 1.5 ng/ml BMP-9 with compound for 2 h, % nuclei with pSMAD1/5 signal, read-out: Smad 1/5 IC50
Excerpt: In vitro cell-based Immunofluorescence-Assay for identification of inhibitors of ALK1-mediated SMAD1/5 phosphorylation in HUVEC cells:
ALK1 is a type I cell-surface receptor for the TGF-β superfamily of ligands. In adults ALK1 is mainly expressed on activated endothelial cells, e.g. during wound healing or in tumor angiogenesis. BMP9 and BMP10 are high affinity ligands for ALK1.
BMP9 and BMP10 binding leads to the phosphorylation of so-called Smad1 at Ser463 and Ser465 in the carboxy-terminal motif SSXS, as well as Smad5 and Smad8 at their corresponding sites. These phosphorylated Smads dimerize with the coactivating Smad4 and translocate to the nucleus, where they stimulate transcription of target genes.
Primary endothelial cells (HUVEC: Human Umbilical Vein Endothelial Cells; supplier Promocell) are cultivated in the culture medium obtained from Promocell (with supplements corresponding to 5% FCS) for maximum 5 passages, seeded into black 384-well culture plates with clear bottom (3000 cells/well/30 μl), and incubated for 16-24 hours at 37° C., 5% CO2 and 90% rH.
The following day cells were serum-starved for 2-3 h in order to stop TGF-ß-mediated signalling derived from ligands present in FBS. 1.5 ng/ml BMP-9 was than added in parallel with test compounds for 2 h at 37° C., 5% CO2 in order to identify compounds which block functional activity of ALK1 leading to phosphorylation and nuclear translocation of SMAD1/5/8.
After fixation (15 min 4% Formaldehyd in PBS) and permeabilization (10 min 0.2% Triton X-100 in PBS) an indirect immunocytochemical staining is performed with a specific Phospho-Smad1/5 (Ser463/465) antibody (Cell Signaling #9516) and Alexa488-labelled secondary anti-rabbit-IgG-antibody. DNA staining with Propidium Iodide allowed parallel cell counting. Image acquisition and analysis was performed on an MDS ImageXpress Ultra confocal High Content Reader using the image analysis software MetaXpress. Final read-out were % nuclei with a pSMAD1/5 signal above a defined background.
The final DMSO concentration in the assay was 0.5%. DMSO-treated HUVEC cells served as neutral control (=0%) and cells treated with 10 μM of a reference inhibitor described in a patent served as inhibitor control (=−100%). Raw data were normalised to the neutral and inhibitory references. The assay was performed as dose response (10 compound dilutions, 1 nM-30 μM).

| SMILES | IC50 [1] | IC50 [2] | IC50 [3] |
| --- | --- | --- | --- |
| Cc1ccc2nc(-c3cc(-c4ccncc4)c[nH]c3=O)[nH]c2c1 [Compound A4, 5-(5-Methyl-1H-benzimidazol-2-yl)-1H-[3,4′]bipyridinyl-6-one] | 9.2 µM | 5.4 µM |  |
| CN1CCN(c2ccc3[nH]c(-c4cc(-c5ccncc5)c[nH]c4=O)nc3c2)CC1 [Compound A28, 5-[5-(4-Methyl-piperazin-1-yl)-1H-benzimidazol-2-yl]-1H-[3,4′]bipyridinyl-6-one] |  | 0.099 µM |  |
| Cc1cccc2[nH]c(-c3cc(-c4ccncc4)c[nH]c3=O)nc12 [Compound A5, 5-(4-Methyl-1H-benzimidazol-2-yl)-1H-[3,4′]bipyridinyl-6-one] | 10 µM | 5.7 µM |  |
| O=c1[nH]cc(-c2cc(CO)ccc2Cl)cc1-c1nc2cc(N3CCOCC3)ccc2[nH]1 [Compound A11, 5-(2-Chloro-5-hydroxymethyl-phenyl)-3-(5-morpholin-4-yl-1H-benzimidazol-2-yl)-1H-pyridin-2-one] |  |  | 6.5 µM |
| O=c1[nH]cc(-c2ccnc3ccccc23)cc1-c1nc2cc(N3CCNCC3)ccc2[nH]1 [Compound A14, 3-(6-Piperazin-1-yl-1H-benzimidazol-2-yl)-5-quinolin-4-yl-1H-pyridin-2-one] |  |  | 5.7 µM |
| CN1CCC(NC(=O)c2ccc3[nH]c(-c4cc(-c5ccncc5)c[nH]c4=O)nc3c2)CC1 [Compound A58, 2-(6-Oxo-1,6-dihydro-[3,4′]bipyridinyl-5-yl)-3H-benzimidazole-5-carboxylic acid (1-methyl-piperidin-4-yl)-amide] | 3.3 µM | 3.1 µM |  |
| COc1ccc2[nH]c(-c3cc(-c4ccnc5[nH]ccc45)c[nH]c3=O)nc2c1 [Compound A42, 3-(5-Methoxy-1H-benzimidazol-2-yl)-5-(1H-pyrrolo[2,3-b]pyridin-4-yl)-1H-pyridin-2-one] |  |  | 7.9 µM |
| O=c1[nH]cc(-c2ccnc3[nH]ccc23)cc1-c1nc2ccccc2[nH]1 [Compound A39, 3-(1H-Benzimidazol-2-yl)-5-(1H-pyrrolo[2,3-b]pyridin-4-yl)-1H-pyridin-2-one] | 0.19 µM | 0.12 µM |  |
| COCc1cccc(-c2c[nH]c(=O)c(-c3nc4cc(N5CCNCC5)ccc4[nH]3)c2)c1 [Compound A19, 5-(3-Methoxymethyl-phenyl)-3-(5-piperazin-1-yl-1H-benzimidazol-2-yl)-1H-pyridin-2-one] |  |  | 11 µM |
| O=c1[nH]cc(-c2ccncc2)cc1-c1nc2ccc(Cl)cc2[nH]1 [Compound A3, 5-(5-Chloro-1H-benzimidazol-2-yl)-1H-[3,4′]bipyridinyl-6-one] | 8.9 µM |  |  |
| NCc1ccc2[nH]c(-c3cc(-c4ccncc4)c[nH]c3=O)nc2c1 [Compound A54, 5-(5-Aminomethyl-1H-benzimidazol-2-yl)-1H-[3,4′]bipyridinyl-6-one] | 2.6 µM | 1.1 µM |  |
| CC(=O)NCc1ccc2[nH]c(-c3cc(-c4ccncc4)c[nH]c3=O)nc2c1 [Compound A55, N-[2-(6-Oxo-1,6-dihydro-[3,4′]bipyridinyl-5-yl)-1H-benzimidazol-5-ylmethyl]-acetamide] | 6.8 µM | 3.1 µM |  |
| O=c1[nH]cc(-c2ccnc3ccccc23)cc1-c1nc2ccccc2[nH]1 [Compound A2, 3-(1H-Benzimidazol-2-yl)-5-quinolin-4-yl-1H-pyridin-2-one] | 1.4 µM | 0.63 µM |  |
| Cc1[nH]c2ncccc2c1-c1c[nH]c(=O)c(-c2nc3cc(N4CCNCC4)ccc3[nH]2)c1 [Compound A45, 5-(2-Methyl-1H-pyrrolo[2,3-b]pyridin-3-yl)-3-(5-piperazin-1-yl-1H-benzimidazol-2-yl)-1H-pyridin-2-one] |  |  | 5 µM |
| CN1CCN(c2ccc3[nH]c(-c4cc(-c5cccnc5)c[nH]c4=O)nc3c2)CC1 [Compound A31, 5-[5-(4-Methyl-piperazin-1-yl)-1H-benzimidazol-2-yl]-1H-[3,3′]bipyridinyl-6-one] | 5.5 µM | 3.4 µM |  |
| O=c1[nH]cc(-c2ccnc3[nH]ccc23)cc1-c1nc2cc(N3CC4CCC(C3)N4)ccc2[nH]1 [Compound A46, 3-[6-(3,8-Diaza-bicyclo[3.2.1]oct-3-yl)-1H-benzimidazol-2-yl]-5-(1H-pyrrolo-[2,3-b]pyridin-4-yl)-1H-pyridin-2-one] |  |  | 4.4 µM |
| CCN(CC)CCNC(=O)c1ccc2nc(-c3cc(-c4ccncc4)c[nH]c3=O)[nH]c2c1 [Compound A57, 2-(6-Oxo-1,6-dihydro-[3,4′]bipyridinyl-5-yl)-3H-benzimidazole-5-carboxylic acid (2-diethylamino-ethyl)-amide] | 3.1 µM |  |  |
| O=c1[nH]cc(-c2ccnc3ccccc23)cc1-c1nc2cc(Oc3ccncc3)ccc2[nH]1 [Compound A10, 3-[5-(Pyridin-4-yloxy)-1H-benzimidazol-2-yl]-5-quinolin-4-yl-1H-pyridin-2-one] | 0.95 µM | 0.43 µM |  |
| CN1CCN(c2ccc3[nH]c(-c4cc(-c5cnn(C)c5)c[nH]c4=O)nc3c2)CC1 [Compound A30, 3-[5-(4-Methyl-piperazin-1-yl)-1H-benzimidazol-2-yl]-5-(1-methyl-1H-pyrazol-4-yl)-1H-pyridin-2-one] | 1.8 µM | 0.71 µM |  |
| O=c1[nH]cc(-c2c[nH]c3ccccc23)cc1-c1nc2cc(N3CCNCC3)ccc2[nH]1 [Compound A15, 5-(1H-Indol-3-yl)-3-(6-piperazin-1-yl-1H-benzimidazol-2-yl)-1H-pyridin-2-one] | 3.5 µM |  |  |
